Experimental data reported in patent US7994185B2, “Benzene sulfonamide thiazole and oxazole compounds” (Glaxo Smith Kline LLC, priority 2008, dated 2011).
Like-named read-outs stand apart in the source and are kept apart here.

Legend:
[1] = molecular target: T1, BRAFV600E full-length (amino acids 2-766) (Homo sapiens, UniProt P15056, V600E); assay: B-Raf Accelerated MEK ATPase assay (BRAMA); type: biochemical; conditions: categorized
T1 construct: His6-tagged BRAFV600E full-length (amino acids 2-766); His6; made in house; host or cells: baculovirus expression system (insect cells)
T1 sequence (P15056 2-766 V600E): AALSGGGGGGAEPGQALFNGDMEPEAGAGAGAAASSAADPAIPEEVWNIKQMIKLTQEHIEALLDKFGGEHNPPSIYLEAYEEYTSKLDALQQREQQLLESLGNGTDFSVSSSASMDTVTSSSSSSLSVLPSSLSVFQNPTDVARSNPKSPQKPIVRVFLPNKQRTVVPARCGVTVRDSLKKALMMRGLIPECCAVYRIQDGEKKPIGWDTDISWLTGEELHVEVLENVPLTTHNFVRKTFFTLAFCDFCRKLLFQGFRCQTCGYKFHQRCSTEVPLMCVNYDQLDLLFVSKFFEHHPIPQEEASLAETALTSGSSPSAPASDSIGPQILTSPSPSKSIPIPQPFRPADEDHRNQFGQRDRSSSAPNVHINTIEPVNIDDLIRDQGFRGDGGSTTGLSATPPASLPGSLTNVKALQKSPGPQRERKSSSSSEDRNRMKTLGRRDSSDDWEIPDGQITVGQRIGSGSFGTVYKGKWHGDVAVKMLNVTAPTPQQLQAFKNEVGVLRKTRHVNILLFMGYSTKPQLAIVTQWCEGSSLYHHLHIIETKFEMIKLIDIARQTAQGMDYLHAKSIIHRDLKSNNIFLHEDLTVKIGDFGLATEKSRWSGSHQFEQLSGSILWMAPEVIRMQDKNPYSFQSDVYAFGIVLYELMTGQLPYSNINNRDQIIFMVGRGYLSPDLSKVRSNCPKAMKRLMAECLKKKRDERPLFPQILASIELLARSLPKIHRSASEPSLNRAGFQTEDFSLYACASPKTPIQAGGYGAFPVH
In short: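 Coupled-enzyme readout: ADP generated by MEK-mediated ATP hydrolysis, uncoupled from ERK phosphorylation, is linked to NADH oxidation through pyruvate kinase and lactate dehydrogenase.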

[2] = system: Human colon tumor cells (Colo205); assay: Cell growth inhibition assay (CellTiter-Glo), Colo205; type: cell-based
In short: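 Luminescent ATP read-out (CellTiter-Glo) served as a proxy for cell number; percent growth inhibition was calculated against DMSO vehicle wells. Cells were treated for 3 days at 37 °C with serially diluted compound, 0.2% DMSO final.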

[3] = system: Human melanoma cancer cells (SK-MEL-28); assay: Cell growth inhibition assay (CellTiter-Glo), SK-MEL-28; type: cell-based
[4] = B-Raf pIC50, Table 1b, later runs, average pIC50 for the one or more runs
[5] = COLO 205, Table 2b, later runs, average for the one or more runs, categorized, read-out: IC50 for Colo205
[6] = SK-MEL-28, Table 3b, later runs, average for the one or more runs, categorized, read-out: IC50 for SK-MEL-28
[7] = B-Raf Activity, Table 1a, highest pIC50 for the one or more runs
[8] = Table 1b, later runs, average pIC50 for the one or more runs, read-out: B-Raf pIC50 (converted)
[9] = COLO 205, 72 h, Table 2a, 3 days incubation, read-out: Activity in Colo205 Tumor Cells
[10] = SK-MEL-28, 72 h, Table 3a, 3 days incubation, read-out: Activity in SK-MEL-28 Tumor Cells

SMILES	IC50 [1, 4] [nM]	IC50 [2, 5] [nM]	IC50 [3, 6] [nM]	IC50 [1, 7] [nM]	IC50 [1, 8] [nM]	IC50 [2, 9] [nM]	IC50 [3, 10] [nM]
O=S(=O)(Nc1cccc(-c2nc(N3CCOCC3)sc2-c2ccncn2)c1Cl)c1cc(F)ccc1F [Example 240, N-{2-chloro-3-[2-(4-morpholinyl)-5-(4-pyrimidinyl)-1,3-thiazol-4-yl]phenyl}-2,5-difluorobenzenesulfonamide]	≤ 3.16	< 100	< 100	–	–	–	–
Cc1ccc(F)cc1S(=O)(=O)Nc1cccc(-c2nc(C(C)(C)C)sc2-c2ccnc(N)n2)c1F [Example 53, N-{3-[5-(2-Amino-4-pyrimidinyl)-2-(1,1-dimethylethyl)-1,3-thiazol-4-yl]-2-fluorophenyl}-5-fluoro-2-methylbenzenesulfonamide]	–	< 100	< 100	< 100	3.16 to 31.6	< 100	< 100
CC(C)c1nc(-c2ccc(F)c(NS(=O)(=O)c3c(F)cccc3F)c2)c(-c2ccnc(NCCF)n2)s1 [Example 178]	31.6 to 1000	100 to 1000	100 to 1000	< 100	–	100 to 1000	100 to 1000
Cc1ccc(F)c(S(=O)(=O)Nc2cccc(-c3nc(C(C)(C)C)sc3-c3ccnc(N)n3)c2F)c1 [Example 145]	31.6 to 1000	100 to 1000	100 to 1000	< 100	–	100 to 1000	100 to 1000
CS(=O)(=O)N1CCC(Nc2nccc(-c3sc(N4CCOCC4)nc3-c3cccc(NS(=O)(=O)c4c(F)cccc4F)c3F)n2)CC1 [Example 79, 2,6-Difluoro-N-{2-fluoro-3-[5-(2-{[1-(methylsulfonyl)-4-piperidinyl]amino}-4-pyrimidinyl)-2-(4-morpholinyl)-1,3-thiazol-4-yl]phenyl}benzenesulfonamide]	≤ 3.16	< 100	< 100	< 100	–	< 100	< 100
CS(=O)(=O)N1CCC(Nc2nccc(-c3sc(C4CCOCC4)nc3-c3ccc(F)c(NS(=O)(=O)c4cc(F)ccc4F)c3)n2)CC1 [Example 70, 2,5-Difluoro-N-{2-fluoro-5-[5-(2-{[1-(methylsulfonyl)-4-piperidinyl]amino}-4-pyrimidinyl)-2-(tetrahydro-2H-pyran-4-yl)-1,3-thiazol-4-yl]phenyl}benzenesulfonamide]	–	100 to 1000	100 to 1000	< 100	3.16 to 31.6	100 to 1000	100 to 1000
CC(C)c1nc(-c2cccc(NS(=O)(=O)c3c(F)cccc3F)c2F)c(-c2ccnc(N)n2)s1 [Example 60, N-{3-[5-(2-Amino-4-pyrimidinyl)-2-(1-methylethyl)-1,3-thiazol-4-yl]-2-fluorophenyl}-2,6-difluorobenzenesulfonamide]	≤ 3.16	< 100	< 100	< 100	–	< 100	< 100
CC(C)CNc1nccc(-c2sc(C(C)(C)C)nc2-c2cccc(NS(=O)(=O)c3c(F)cccc3F)c2F)n1 [Example 134]	–	100 to 1000	100 to 1000	< 100	3.16 to 31.6	100 to 1000	100 to 1000
CC(C)c1nc(-c2ccc(F)c(NS(=O)(=O)c3cc(F)ccc3F)c2)c(-c2ccnc(NCC3CCN(C(=O)OC(C)(C)C)CC3)n2)s1 [Example 127]	31.6 to 1000	1000 to 10000	1000 to 10000	< 100	–	> 1000	> 1000
CC(C)(C)c1nc(-c2cccc(NS(=O)(=O)c3cc(F)ccc3F)c2F)c(-c2ccnc(CCC(=O)N3CCS(=O)(=O)CC3)n2)s1 [Example 255, N-[3-(2-(1,1-dimethylethyl)-5-{2-[3-(1,1-dioxido-4-thiomorpholinyl)-3-oxopropyl]-4-pyrimidinyl}-1,3-thiazol-4-yl)-2-fluorophenyl]-2,5-difluorobenzenesulfonamide]	–	< 100	< 100	–	3.16 to 31.6	–	–
CS(=O)(=O)N[C@H]1CC[C@H](Nc2nccc(-c3sc(N4CCCC4)nc3-c3cccc(NS(=O)(=O)c4c(F)cccc4F)c3)n2)CC1 [Example 17, 2,6-Difluoro-N-{3-[5-[2-({trans-4-[(methylsulfonyl)amino]cyclohexyl}amino)-4-pyrimidinyl]-2-(1-pyrrolidinyl)-1,3-thiazol-4-yl]phenyl}benzenesulfonamide]	–	< 100	< 100	< 100	3.16 to 31.6	< 100	< 100
O=S(=O)(Nc1cccc(-c2nc(N3CCOCC3)sc2-c2ccnc(NCC3CCCO3)n2)c1F)c1cc(F)ccc1F (stereo not drawn) [Example 209]	≤ 3.16	< 100	< 100	< 100	–	< 100	< 100
CC(C)CNc1nccc(-c2sc(N3CCOCC3)nc2-c2cccc(NS(=O)(=O)c3c(F)cccc3F)c2F)n1 [Example 91, 2,6-Difluoro-N-{2-fluoro-3-[5-{2-[(2-methylpropyl)amino]-4-pyrimidinyl}-2-(4-morpholinyl)-1,3-thiazol-4-yl]phenyl}benzenesulfonamide]	≤ 3.16	< 100	< 100	< 100	–	< 100	< 100
